Data from patent publication EP0459829A1, “Pharmacologically active CNS compounds” (THE WELLCOME FOUNDATION LIMITED, priority 1990, dated 1991).

Tests used:
Rat Liver DHFR = molecular target: T1, Rat Liver DHFR (Rattus norvegicus, UniProt Q920D2); experiment: Inhibition of DHFR enzyme activity; type: biochemical; settings: read-out: IC50(µM) Rat Liver DHFR (P95 limits)
T1 construct: from tissue; host or cells: rat liver
T1 sequence (Q920D2 1-187): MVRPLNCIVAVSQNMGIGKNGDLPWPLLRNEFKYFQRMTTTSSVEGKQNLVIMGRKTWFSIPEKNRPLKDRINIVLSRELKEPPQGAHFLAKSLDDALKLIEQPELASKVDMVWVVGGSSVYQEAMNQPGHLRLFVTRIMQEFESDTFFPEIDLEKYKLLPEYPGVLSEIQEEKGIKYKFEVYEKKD
Protocol: (§1) A compound of Formula (1) was tested for its effect on veratrine-evoked release of glutamate from rat brain slices according to the protocol described in Epilepsia 27(5): 490-497, 1986. The protocol for testing for inhibition of DHFR activity was a modification of that set out in Biochemical Pharmacology Vol.20 pp 561-574, 1971.
(§2) The results are given in Table 1, the IC50 being the concentration of compound to cause 50% inhibition of (a) veratrine-evoked release of glutamate and (b) of DHFR enzyme activity.

[1] = tested on: veratrine-evoked release of glutamate from rat brain slices; experiment: Inhibition of veratrine-evoked release of glutamate from rat brain slices; type: cell-based; settings: read-out: IC50(µM) Glutamate Release (P95 limits)
Protocol: as §1, §2

Nc1nnc(-c2cc(Cl)c(N)c(Cl)c2Cl)c(N)n1 [Example 1, 3,5-Diamino-6-(4-amino-2,3,5-trichlorophenyl)-1,2,4-triazine]
IC50 (Rat Liver DHFR): > 100 µM
IC50 [1]: < 10 µM
